“Also recorded” adds a separate entry of the source. Read-outs that look alike come from different tables or passages of the source.
Columns and labels:
newborn rats [1] = assay: Fentanyl-induced respiratory depression in rat pups (postnatal day 3-4), plethysmography; assay type: in vivo
adult rats [2] = assay: Baseline ventilation after drug alone, plethysmography in adult rats; assay type: in vivo, rat; conditions: for baseline minute ventilation: drug alone: A85380 0.03, Rivanicline 3, NS9283 10, PNU282987 1-15 mg/kg
[3] = tested on: medullary slice (preBötC and XII motoneurons); set-up: species or system rat
[4] = tested on: brainstem-spinal cord in vitro preparations; assay: Brainstem-spinal cord in vitro preparation, respiratory rhythm (C4 / XII nerve recordings); set-up: species or system rat; conditions: for fR in the presence of the antagonist: antagonist 400 nM
Protocol: Brainstem-spinal cord and medullary slice preparations were obtained from neonatal Sprague-Dawley rats. The rats were anesthetized with metofane, decerebrated, and the brainstem-spinal cord (BSSC) and medullary slice dissected (Smith et al., 1990; 1991). BSSC was continuously perfused with modified Krebs solution. A single rhythmic medullary slice was cut (500-650 μm thick) and continuously perfused with bathing solution. Inspiratory activity was recorded from the fourth ventral cervical nerve roots of BSSC or XII nerve rootlets of the medullary slice using an extracellular glass electrode.
Neonatal (postnatal day 1-3) rats were anesthetized with metofane, decerebrated and the brainstem-spinal cord dissected as previously reported. The neuraxis was continuously perfused at 27°±1° C. (5 ml/min; chamber volume, 3 ml) with modified Kreb's solution that contained 128 mM NaCl, 3.0 mM KCl, 1.5 mM CaCl2, 1.0 mM MgCl2, 23.5 mM NaHCO3, 0.5 mM NaH2PO4, and 30 mM d-glucose equilibrated with 95% O2-5% CO2 (pH 7.4).
A single transverse slice containing the preBötC and more caudal reticular formation regions was then cut (700 μm thick) from brainstem-spinal cord preparations perfused with a bathing solution identical to that used for B SSC preparation with the exception that the KCl concentration was increased to 9 mM to facilitate long-term generation of stable rhythm. Recordings from the fourth ventral cervical nerve roots of brainstem-spinal cord or hypoglossal nerve roots of medullary slice preparations were amplified, rectified, low-pass filtered, and recorded to a computer, using an analog-digital converter (Axon Instruments Digidata; Molecular Devices, Sunnyvale, Calif.) and data acquisition software (Axon Instruments AxoScope).

adult rats [5] = assay: Formalin test (licking and lifting) in adult rats; assay type: in vivo, rat
newborn rats [6] = assay: Propofol-induced respiratory depression in newborn rats (P3); assay type: in vivo, rat
Protocol: In a further experiment, A85380 (0.03 mg/kg, ip) and propofol (30 mg/kg, ip) were co-administered in newborn rats in vivo (P3). In the control group, vehicle (saline) was administered with 30 mg/kg propofol (FIG. 6A). […] Without being bound by any theory, targeting of α4β2 nAChRs may be a potent means of alleviating the effects of drugs (e.g. propofol) causing respiratory depression via GABAA receptor mechanisms in vivo.

[7] = tested on: P0 rat brainstem-spinal cord preparation with C2 hemisection; assay: C2 hemisection spinal cord injury model, brainstem-spinal cord preparation, C4 recordings; conditions: A85380 25 nM bath
Excerpt: One of the primary causes of morbidity and mortality associated with spinal cord injury is loss of normal functioning of the respiratory musculature. This is caused by a reduced synaptic drive from respiratory rhythm generating centers onto respiratory spinal motoneurons. An in vitro newborn brainstem spinal cord rat model of spinal cord injury (Zimmer and Goshgarian, 2005) was used to test the efficacy of targeting α4β2 nAChRs to alleviate weak respiratory drive. […] Rectified and integrated signals were made from both C4 recordings from a P0 rat brainstem-spinal cord preparation showing the respiratory activity both contralateral (A: top traces) and ipsilateral (B: bottom traces) to one side C2 hemisection. There was a marked reduction in neural activity after the hemisection in ipsilateral nerve, but respiratory-like activity was still observed occasionally and was correlated with the respiratory activity on the contralateral nerve.

rat pups = conditions: in vivo
adult rats [8] = conditions: rat, in vivo, sc, 0.06 mg/kg
[9] = oral administration, compared with sazetidine-A (Kong et al. 2015); cited from earlier work
adult rats [10] = conditions: rat, in vivo, iv
(α4)2(β2)3 receptors = (α4)2(β2)3 receptors (Homo sapiens, UniProt P17787+P43681); conditions: Zwart et al., 2008; Carbone et al., 2009; cited from earlier work
(α4)3(β2)2 receptors = (α4)3(β2)2 receptors (Homo sapiens, UniProt P17787+P43681); conditions: Zwart et al., 2008; Carbone et al., 2009; cited from earlier work
Chain of (α4)3(β2)2 receptors (P43681 29-627 limits assumed): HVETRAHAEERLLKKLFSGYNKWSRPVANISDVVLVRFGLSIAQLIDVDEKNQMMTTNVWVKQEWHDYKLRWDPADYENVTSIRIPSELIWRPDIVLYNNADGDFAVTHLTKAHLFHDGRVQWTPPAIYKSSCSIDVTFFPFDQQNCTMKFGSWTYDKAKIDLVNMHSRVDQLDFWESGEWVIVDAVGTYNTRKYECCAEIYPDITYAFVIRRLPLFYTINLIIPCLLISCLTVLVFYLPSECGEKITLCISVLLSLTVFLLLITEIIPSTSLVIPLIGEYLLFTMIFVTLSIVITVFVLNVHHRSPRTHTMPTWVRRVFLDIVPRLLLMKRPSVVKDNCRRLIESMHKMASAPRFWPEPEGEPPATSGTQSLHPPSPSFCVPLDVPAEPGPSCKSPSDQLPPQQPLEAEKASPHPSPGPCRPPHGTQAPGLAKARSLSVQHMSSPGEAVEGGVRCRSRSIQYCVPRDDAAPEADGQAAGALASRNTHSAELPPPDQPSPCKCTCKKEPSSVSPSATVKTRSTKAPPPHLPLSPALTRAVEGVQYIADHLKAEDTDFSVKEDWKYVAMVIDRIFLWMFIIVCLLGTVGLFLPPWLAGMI
Chain of (α4)3(β2)2 receptors (P17787 26-502): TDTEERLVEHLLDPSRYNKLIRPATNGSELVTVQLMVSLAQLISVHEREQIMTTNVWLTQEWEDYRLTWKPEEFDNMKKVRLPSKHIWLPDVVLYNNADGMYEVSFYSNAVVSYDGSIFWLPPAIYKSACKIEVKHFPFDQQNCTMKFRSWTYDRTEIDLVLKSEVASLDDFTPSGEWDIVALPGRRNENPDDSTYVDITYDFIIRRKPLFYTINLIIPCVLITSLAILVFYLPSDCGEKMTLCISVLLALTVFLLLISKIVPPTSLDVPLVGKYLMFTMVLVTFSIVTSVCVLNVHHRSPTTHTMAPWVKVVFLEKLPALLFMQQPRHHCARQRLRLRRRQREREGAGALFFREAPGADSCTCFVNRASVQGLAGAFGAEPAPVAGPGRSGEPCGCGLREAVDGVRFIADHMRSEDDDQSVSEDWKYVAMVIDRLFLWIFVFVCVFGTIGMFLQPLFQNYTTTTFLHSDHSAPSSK

Chain of (α4)2(β2)3 receptors (P43681 29-627 limits assumed): as the sequence (P43681 29-627 limits assumed) above
Chain of (α4)2(β2)3 receptors (P17787 26-502): as the sequence (P17787 26-502) above

## CN1CCCC1CCc1ccc(S)cc1 (racemic) [SIB 1553A, (±)-4-[2-((N-methyl)-2-pyrrolidinyl)ethyl]thiophenol]
Newborn rats [1]; DHβE 6 mg/kg co-administration with fentanyl, SIB 1553A 40 mg/kg
  SIB 1553A effects with DHβE co-administered: only partially blocked
Newborn rats [1]; fentanyl 35 μg/kg + mecamylamine 6 mg/kg, SIB 1553A 40 mg/kg
  fentanyl-induced respiratory depression with mecamylamine co-administered: had no effects
Newborn rats [1]; fentanyl 35 μg/kg, SIB 1553A 40 mg/kg sc
  fentanyl-induced decrease in tidal volume (VT): without marked effects
Newborn rats [1]; fentanyl 35 μg/kg, SIB 1553A 40 mg/kg sc 7 min later
  fentanyl-induced decrease in respiratory rate (fR): partially reversed

## c1cncc(OC[C@@H]2CCN2)c1 [A85380, 3-(2(s)-azetidinylmethoxy) pyridine]
Adult rats [2]
  baseline minute ventilation: 97.8±3.1 % of control
[3]
  DAMGO-induced suppression of fR: alleviated
  DAMGO-induced suppression of respiratory frequency and amplitude: alleviated
  baseline respiratory burst area: decreased baseline respiratory burst area
  baseline respiratory frequency: increased respiratory frequency; also recorded: increased fR
  loss of respiratory drive and motor output in low potassium: potently reversed the loss of respiratory drive and motor output
  respiratory amplitude: decreased the respiratory amplitude
[4]
  baseline fR: increased baseline fR
  baseline respiratory amplitude: without marked effects
  baseline respiratory frequency: increased baseline respiratory frequency
  concentrations at which baseline fR is increased: above 5 nM
  ethanol and pentobarbital-induced respiratory depression: alleviated
  reversal of DAMGO-induced respiratory depression (decrease in fR and burst area): clear reversal
  reversal of DAMGO-induced respiratory depression (frequency and amplitude): clear reversal
  weak respiratory rhythm and XII motor output: increased respiratory frequency, amplitude and bursting duration
Adult rats [5]; rat, in vivo, sc, 0.06 mg/kg
  nocifensive response 20-40 minutes post formalin, baseline: decreased nocifensive response
Newborn rats [6]; A85380 0.03 mg/kg ip co-administered with propofol 30 mg/kg ip
  propofol-induced respiratory depression: dramatically prevented
[7]
  ipsilateral respiratory amplitude after C2 hemisection: partially increased
  respiratory frequency after C2 hemisection: increased the respiratory frequency
Rat pups
  significant alteration of baseline VE: Neither
Adult rats [8]
  paw withdrawal latency to thermal stimuli, baseline: marked increase in paw withdrawal latency

## C[C@@H](NC(=O)[C@@H](N)Cc1ccc(O)cc1)C(=O)NCC(=O)N(C)[C@@H](Cc1ccccc1)C(=O)NCCO [DAMGO, [D-Ala2, NMe-Phe4, Gly-ol5]-enkephalin]
[3]
  effect of DAMGO on fR: caused a suppression of fR
  effect of DAMGO on respiratory frequency and amplitude: induced suppression of respiratory frequency and amplitude
[4]
  respiratory depression by DAMGO (fR and burst area): suppressed fR and burst area

## CCN1C[C@]2(COC(=O)c3ccccc3N3C(=O)C[C@H](C)C3=O)CC[C@H](OC)[C@@]34[C@@H]5C[C@H]6[C@H](OC)[C@@H]5[C@](O)(C[C@@H]6OC)[C@](O)([C@@H](OC)[C@H]23)[C@@H]14 [MLA]
[4]
  fR in the presence of the antagonist: fR was slower

## N#Cc1cccc(-c2nc(-c3cccnc3)no2)c1 [NS9283, 3-[3-(3-Pyridinyl)-1,2,4-oxadiazol-5yl]benzonitrile]
Adult rats [2]
  baseline minute ventilation: 103.3±4.2 % of control
[4]; C4 discharge, A85380 25 nM, Rivanicline 0.5 μM, NS9283 15 μM
  baseline respiratory amplitude: without marked effects
[4]; C4 discharge, bath A85380 25 nM, Rivanicline 0.5 μM, NS9283 15 μM, PNU282987 up to 20 μM (Example 3)
  baseline respiratory frequency: increased baseline respiratory frequency
[4]; bath after DAMGO: A85380 25 nM, Rivanicline 0.5 μM, NS9283 15 μM, PNU282987 1-20 μM (Example 3)
  reversal of DAMGO-induced respiratory depression (frequency and amplitude): clear reversal

## O=C(N[C@H]1CN2CCC1CC2)c1ccc(Cl)cc1 [PNU282987]
Adult rats [2]
  baseline minute ventilation: 102.9±4.1 % of control
[3]
  baseline respiratory frequency: had no effect
[4]
  baseline fR: very modest increase in fR
  baseline respiratory frequency: very modest increase in respiratory frequency
Rat pups
  significant alteration of baseline VE: Neither

## CNCC/C=C/c1cccnc1 [Rivanicline, (E)-N-Methyl-4-(3-pyridinyl)-3-butene-1-amine]
Adult rats [2]
  baseline minute ventilation: 98.4±3.6 % of control
[4]
  baseline respiratory amplitude: without marked effects
  baseline respiratory frequency: increased baseline respiratory frequency
  reversal of DAMGO-induced respiratory depression (frequency and amplitude): clear reversal

## C(#Cc1cncc(OC[C@@H]2CCN2)c1)c1ccccc1 [VMY-2-95, 3-[(2S)-2-Azetidinylmethoxy]-5-(2-phenylethynyl)-pyridine]
[9]
  penetration of the blood-brain barrier: better penetration of the blood-brain barrier
Rat pups
  significant alteration of baseline VE: Neither

## CN1[C@@H](CC(=O)c2ccccc2)CCC[C@H]1C[C@H](O)c1ccccc1 [lobeline, 2-((2R,6S)-6-((S)-2-Hydroxy-2-phenylethyl)-1-methylpiperidin-2-yl)-1-phenylethanone]
Adult rats [2]; lobeline 3 mg/kg iv alone
  VE: 116.2±8.7 % of control
Adult rats [2]; lobeline 6 mg/kg ip alone
  VE: did not affect VE
Adult rats [5]; lobeline 3 mg/kg iv alone
  nocifensive response, phase II: tended to decrease the nocifensive response in the phase II, but the difference is not significant
Adult rats [5]; lobeline 3 mg/kg iv alone, formalin 30 min post lobeline
  nocifensive response, phase I: decreased nocifensive response
Adult rats [10]
  loss of righting reflex: 22.4 ± 7.3 min

## CN1CCCC1c1cccnc1 (centres unmarked) [nicotine]
[4]
  baseline fR: caused an increase of baseline fR
  concentrations at which baseline fR is increased: above 200 nM
  reversal of DAMGO-induced respiratory depression (decrease in fR and burst area): clear reversal
Rat pups
  significant alteration of baseline VE: Neither

## CC(C)c1cccc(C(C)C)c1O [propofol]
Newborn rats [6]; propofol 30 mg/kg ip
  duration of propofol respiratory depression: over 30 minutes
  onset of propofol respiratory depression: ≤ 5 min
Newborn rats [6]; propofol 30 mg/kg ip with saline
  respiratory depression by propofol: marked depression of respiratory frequency and amplitude

## OCCCCC#Cc1cncc(OC[C@@H]2CCN2)c1 [sazetidine-A, 6-[5-[(2S)-2-Azetidinylmethoxy]-3-pyridinyl]-5-hexyn-1-ol]
(α4)2(β2)3 receptors
  agonist activity: full agonist activity
(α4)3(β2)2 receptors
  agonist activity: nearly no agonist activity
Rat pups
  significant alteration of baseline VE: Neither

## dihydro-beta-erythroidine [DHβE]
[3]; DHβE 200 nM subsequent bath application
  reversal of A85380 (25 nM) effects by antagonist: reversed
[4]
  fR in the presence of the antagonist: fR was slower
Rat pups
  significant alteration of baseline VE: Neither
